Measured values published in patent US20250127913A1, “BIFUNCTIONAL FOLATE RECEPTOR BINDING COMPOUNDS” (LYCIA THERAPEUTICS, INC., priority 2021, published 2025).
pEC50, pIC50, pKd: −log10 of the molar value.

Tests used:
THP-1 cells = test: Compound mediated uptake of TNFα-pHrodo in THP-1 cells (flow cytometry); type: cell-based; parameters: key to Uptake in THP1 cells (run) 2 / Uptake in THP1 cells (run) 3 / Uptake in THP1 cells (run) 4: + = ΔMFI less than that of I-17; ++ = ΔMFI ≈ to that of I-17; +++ = ΔMFI greater than that of I-17; conditions: ΔMFI compared with I-17, uptake at 10 μM
FOLR2 = FOLR2 (Homo sapiens (Human), UniProt P14207); test: SPR binding kinetics of compounds to folate receptor (FOLR2 immobilized on CM5 chip)
Sequence of FOLR2 (P14207 17-255): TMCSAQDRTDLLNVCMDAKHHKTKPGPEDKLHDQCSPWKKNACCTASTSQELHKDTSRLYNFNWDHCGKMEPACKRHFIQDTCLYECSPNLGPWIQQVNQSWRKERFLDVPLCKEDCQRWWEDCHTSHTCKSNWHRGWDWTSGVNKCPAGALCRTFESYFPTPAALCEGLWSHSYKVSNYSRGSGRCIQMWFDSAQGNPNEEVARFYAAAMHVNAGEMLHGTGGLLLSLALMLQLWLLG
Description: A Biacore 8K+ was used to measure the association and dissociation rates of example compounds to FOLR2 (Acro Biosystems, Cat: F02-H5223-100 μg). Briefly, FOLR2 was reconstituted according to the manufacture's instructions to 200 μg/mL. Both the active and reference surfaces of a Cytiva CM5 Series S Sensor Chip were activated with a 1:1 mixture of 400 mM EDC and 100 mM NHS for 420 s at 10 μL/min. 25 μg/mL FOLR2 diluted in Sodium Acetate pH 5.5 was injected on the active channel (Flow Cell 2) for 420 s at 10p/min. Both the reference and active surfaces were then capped with 1M ethanolamine, pH 8.5 for 420 s, achieving an immobilization level of ˜4200 RU. Example compounds were serially diluted 1:1 in running buffer (10 mM HEPES, 150 mM NaCl, 0.05% T20, pH 7.5, 2% DMSO) from 100 nM to 3.125 nM and flowed over the active and reference surfaces for 120 s, and then allowed to dissociate in running buffer for 600 s, at 30 uL/min. The FOLR2 immobilized active surface and the reference surface were regenerated with a 30 s pulse of Sodium Acetate pH 5.5 at 30 μL/min. Sensorgrams were solvent corrected, double-referenced, and the data fitted and analyzed in Biacore Insight Evaluation Software Version 3.0.11.15423.

[1] = system: TNFα trimer complex to folate receptor (FOLR2); test: SPR co-engagement of compound-TNFα trimer complex to folate receptor; conditions: TNFα + 10 nM compound binding FOLR2
Description: The active (Flow cell 2) surfaces of a Cytiva CM5 Series S Sensor Chip functionalized with FOLR2 as described in Example 58. Example compounds were diluted to 10 nM with 50 and 100 nM TNFα single chain trimer or 150 nM and 300 nM TNFα native monomer in running buffer (10 mM HEPES, 150 mM NaCl, 0.05% T20, pH 7.5, 2% DMSO), allowed to incubate for 5 hours at 25° C. and then flowed over the active and reference surfaces for 110 s, and then allowed to dissociate in running buffer for 600 s, at a flow rate of 30 μL/min. The FOLR2 immobilized active surface and the reference surface were regenerated with a 30 s pulse of 4M MgCl2 at 30 μL/min then allowed to equilibrate 240 s. Sensorgrams were solvent corrected, double-referenced, and the data fitted and analyzed in Biacore Insight Evaluation Software Version 3.0.11.15423.

TNFα trimer = TNFα trimer (Homo sapiens, UniProt P01375); test: SPR binding kinetics of compounds to TNFα trimer; conditions: class symbols
Sequence of TNFα trimer (P01375 77-233 limits assumed): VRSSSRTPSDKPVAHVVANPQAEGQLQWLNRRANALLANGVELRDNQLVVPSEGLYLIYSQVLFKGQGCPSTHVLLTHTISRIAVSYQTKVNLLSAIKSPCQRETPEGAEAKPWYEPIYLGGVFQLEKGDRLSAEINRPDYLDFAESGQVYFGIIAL
Description: Streptavidin 100 μg/mL Streptavidin (Invitrogen Cat #: 434302) diluted in 10 mM sodium acetate, pH 4.5) was immobilized to both the reference and active surfaces as described in Example 51. The surfaces were conditioned with three injections of running Buffer (10 mM HEPES, 150 mMNaCl, 0.05% T20, pH 7.5, 2% DMSO) at a flow rate of 10 μL/min, Contact time: 60 s. Flow rate: 10 μL/min. The active surface was treated with biotinylated linked TNFα trimer 20 μg/mL diluted in running buffer at a flow rate of 5 μL/min contact time: 600 s, yielding a final response of ˜3000 RU. Example compounds were then serially diluted 1:1 in running buffer (10 mM HEPES, 150 mM NaCl, 0.05% T20, pH 7.5, 2% DMSO) from 30 uM to 937.5 nM and flowed over the active and reference surfaces from lowest concentration to greatest concentration in the single-cycle kinetics format, and then allowed to dissociate in running buffer for 7200 s, at 30 μL/min. Sensorgrams were solvent corrected, double-referenced, and the data fitted and analyzed in Biacore Insight Evaluation Software Version 3.0.11.15423.

TNFα = TNFα (Homo sapiens (Human), UniProt P01375); test: TNFα binding assay (time-resolved FRET, biotinylated TNFα); conditions: 1 nM biotinylated TNFα, 80 nM probe, 16 hr incubation; read-out: TNF-HTRF-biotin
Sequence of TNFα (P01375 77-233): as the sequence (P01375 77-233 limits assumed) above
Outline: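 Time-resolved FRET displacement of 80 nM acceptor probe from 1 nM biotinylated TNFα with 0.5 nM streptavidin-Tb in 20 mM Hepes pH 7.5, 10 mM MgCl2, 0.015% Tween-20, 0.05 mg/ml BSA, 2% DMSO. Read (ex 340, em 490/520 nm) after 16 hr. Duplicate dose responses normalized to DMSO and 100 nM reference inhibitor; IC50 by 4-parameter fit.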

[2] = target: TNFα and streptavidin immobilized FOL2R (Homo sapiens (Human), UniProt P01375+P14207); test: Ternary complex SPR assay; type: binding; conditions: 10 nM compound, max response normalized to expected response; for TC 150 nM- tagless TNF Normalized: 150 nM untagged TNF; for TC 300 nM- tagless TNF Normalized: 300 nM untagged TNF
Sequence of TNFα and streptavidin immobilized FOL2R (P14207 17-230): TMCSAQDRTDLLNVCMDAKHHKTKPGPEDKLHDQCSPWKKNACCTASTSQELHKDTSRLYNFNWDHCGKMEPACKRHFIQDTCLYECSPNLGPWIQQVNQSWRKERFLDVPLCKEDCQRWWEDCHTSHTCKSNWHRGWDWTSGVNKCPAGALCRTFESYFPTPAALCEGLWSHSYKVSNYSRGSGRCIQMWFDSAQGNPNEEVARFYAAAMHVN
Sequence of TNFα and streptavidin immobilized FOL2R (P01375 77-233): as the sequence (P01375 77-233 limits assumed) above
Outline: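 Biotinylated folate receptor beta captured at ~1800 RU on a streptavidin chip; untagged TNF preincubated 6 hr at 25° C with 10 nM compound in HEPES pH 7.5, 150 mM NaCl, 0.05% Tween 20, 2% DMSO, then injected (110 s association, 600 s dissociation). Maximum response normalized to maximum expected response per compound.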

[3] = system: THP-1 cells overexpressing FOLR2; test: LYTAC mediated uptake of TNFα-Alexa647 in THP-1 WT / FOLR2 overexpressing cells (ΔMFI); type: cell-based; conditions: 2 h; for uptake of TNFα compared the no compound control (DMSO): 300 nM-0.137 nM
Description: Hetero-bifunctional small molecule LYTACs consisting of a TNFα binding moiety, linker and folate receptor binding moiety were tested to determine if folate receptor can internalize TNFα. THP-1 cells overexpressing FOLR2 were generated by stable transduction with lentivirus encoding FOLR2-IRES-GFP. THP-1 WT and FOLR2 overexpressing cells were maintained in RPMI (Gibco #61870143) with 10% v/v FBS (VWR #89510-188) with 2 mM L-alanyl-L-glutamine dipeptide, 100 units/ml penicillin and 100 μg/ml streptomycin (Gibco #27016021). Stable FOLR2 over-expression cells were mixed at a 50:50 ratio with WT THP-1 cells and seeded in a 96 well plate at 50,000 cells in 100 μl folate-free RPMI (Gibco […]) with 10% v/v FBS, 2 mM L-alanyl-L-glutamine dipeptide, 100 units/ml penicillin and 100 μg/ml streptomycin. In a separate 96 well plate, TNFα/folate hetero-bifunctional small molecules were mixed with unmodified TNFα conjugated with Alexa647 by non-specific lysine chemistry. Small molecule LYTACs at a concentration of 600 nM (2× final concentration) in 100 μl folate-free RPMI+10% FBS were incubated at room temperature for 30 mins. The immune complex was serially diluted 3-fold to produce a dose response range from 300 nM-0.137 nM (final concentration). The TNFα/LYTAC complex mixture was transferred to the plate containing a 50:50 mixture of THP1 WT and FOLR2 over expressing cells and incubated for 2 h at 37° C. with 5% C02. Uptake in WT and FOLR2 overexpressing cells was evaluated by flow cytometry by comparing the median fluorescence intensity of […] in the GFP negative (WT) and GFP positive (FOLR2) populations and was quantified as the difference between the mean fluorescence intensities in the APC channel for the GFP positive and GFP negative populations (ΔMFI).

folate receptor beta [4] = target: T1, folate receptor beta (Homo sapiens (Human), UniProt P14207); test: Folate receptor binding assay (fluorescence polarization); conditions: 2.5 nM folate receptor beta, 2 nM FR-Cy probe, 2 hr incubation; read-out: FOLR2-FP
T1 sequence (P14207 17-255): as the sequence (P14207 17-255) above
Outline: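 Fluorescence polarization competition with 2 nM folate–Cy5 probe and 2.5 nM receptor in 20 mM Hepes pH 7.5, 250 mM NaCl, Tween-20, 1% DMSO; 3-fold dilutions, 2 h incubation, ex 620/em 688 nm. Duplicates normalized to DMSO (high) and 1 μM folic acid (low); IC50 from 4-parameter fit.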

folate receptor beta [5] = target: T1, folate receptor beta; test: Folate receptor SPR assay (biotinylated folate receptor beta on streptavidin chip); type: binding; conditions: for Rmax: biotinylated folate receptor beta on streptavidin chip; for kd / pKd / kon: multi-cycle kinetics, 25° C., 1:1 model; for pKd: read-out: FOLR2Biotin - SPR Kd; for kon: pH 7.5, read-out: ka
Outline: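 Biotinylated receptor captured on a streptavidin SPR chip; multi-cycle kinetics at 25 °C with 8 compound concentrations (2-fold dilutions) in HEPES pH 7.5, 150 mM NaCl, 0.05% Tween 20, 2% DMSO. Association 120 s, dissociation 600 s; binding parameters from 1:1 model fit.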

| pKd (FOLR2) | co-engagement / complex formation observed on SPR [1] | pKd (TNFα trimer) | Compound | Uptake in THP1 cells (run) 2 (THP-1 cells) | Uptake in THP1 cells (run) 3 (THP-1 cells) | Uptake in THP1 cells (run) 4 (THP-1 cells; run 4) | pIC50 (TNFα) | TC 150 nM- tagless TNF Normalized [2] | TC 300 nM- tagless TNF Normalized [2] | uptake of TNFα compared the no compound control (DMSO) [3] | pEC50 ([3]; Homo sapiens, ΔMFI FOLR2 overexpressing vs WT THP-1 cells) | pIC50 (folate receptor beta [4]) | Rmax (folate receptor beta [5]) | kd (folate receptor beta [5]) | pKd (folate receptor beta [5]) | kon (folate receptor beta [5]) | TC 60 nM taggless TNF normalized ([2]; 60 nM untagged TNF) |
| --- | --- | --- | --- | --- | --- | --- | --- | --- | --- | --- | --- | --- | --- | --- | --- | --- | --- |
| 9.52 | complex formation observed | > 5.30 | Cc1nc2ccc(-c3ccc(N4CCN(CCOCCn5cc(COCCOCCOCCOCCNC(=O)CC[C@H](NC(=O)c6ccc(NCc7cnc8nc(N)nc(O)c8n7)cc6)C(=O)O)nn5)CC4)nc3)cn2c1Cc1ccccc1OC(F)F (racemic) [Compound I-22, rac-(R)-18-(4-(((2-amino-4-hydroxypteridin-6-yl)methyl)amino)benzamido)-1-(1-(2-(2-(4-(5-(3-(2-(difluoromethoxy)benzyl)-2-methylimidazo[1,2-a]pyridin-6-yl)pyridin-2-yl)piperazin-1-yl)ethoxy)ethyl)-1H-1,2,3-triazol-4-yl)-15-oxo-2,5,8,11-tetraoxa-14-azanonadecan-19-oic acid] | + | + | + |  |  |  |  |  |  |  |  |  |  |  |
| 9.70 | complex formation observed | > 7.00 | Cc1nc2cc(F)c(-c3cnc(OCCCCCn4cc(CNC(=O)CC[C@H](NC(=O)c5ccc(NCc6cnc7nc(N)nc(O)c7n6)cc5)C(=O)O)nn4)nc3)nc2c(N[C@H](C)c2cc(C#N)ccc2F)c1Cl [Compound I-14, N2-(4-(((2-amino-4-hydroxypteridin-6-yl)methyl)amino)benzoyl)-N5-((1-(5-((5-(7-chloro-8-(((R)-1-(5-cyano-2-fluorophenyl)ethyl)amino)-3-fluoro-6-methyl-1,5-naphthyridin-2-yl)pyrimidin-2-yl)oxy)pentyl)-1H-1,2,3-triazol-4-yl)methyl)-L-glutamine] | + | ++ |  |  |  |  |  |  |  |  |  |  |  |  |
|  |  |  | Cc1nc2cc(F)c(-c3cnc(N4CCN(C(=O)COCCOCCOCCOCCOCCOCCn5cc(CC[C@H](NC(=O)c6ccc(OCc7ccc8nc(N)nc(O)c8c7)cc6)C(=O)O)nn5)CC4)nc3)nc2c(N[C@H](C)c2cc(C#N)ccc2F)c1Cl [Compound I-87, (S)-2-(4-((2-amino-4-hydroxyquinazolin-6-yl)methoxy)benzamido)-4-(1-(20-(4-(5-(7-chloro-8-(((R)-1-(5-cyano-2-fluorophenyl)ethyl)amino)-3-fluoro-6-methyl-1,5-naphthyridin-2-yl)pyrimidin-2-yl)piperazin-1-yl)-20-oxo-3,6,9,12,15,18-hexaoxaicosyl)-1H-1,2,3-triazol-4-yl)butanoic acid] |  |  |  | 7.66 | 25.7% | 32.8% | dose-dependent uptake of TNFα | 7.82 | 8.10 | 18.7 RU | 0.000692 s⁻¹ | 10.46 | 1.97e+07 M⁻¹ s⁻¹ |  |
|  |  |  | Cc1nc2cc(F)c(-c3cnc(N4CCN(C(=O)COCCOCCOCCOCCOCCOCCn5cc(CC[C@H](NC(=O)c6ccc(NCc7cnc8nc(N)nc(O)c8n7)cc6)C(=O)O)nn5)CC4)nc3)nc2c(N[C@H](C)c2cc(C#N)ccc2F)c1Cl [Compound I-92] |  |  |  | 7.70 | 16.9% | 18.7% | dose-dependent uptake of TNFα |  | 8.12 | 17.1 RU | 8.7e-05 s⁻¹ | 11.06 | 1e+07 M⁻¹ s⁻¹ | 15.3% |
